Reference: patent US20240101548A1, “HYDROXAMATE COMPOUND, PREPARATION METHOD THEREFOR AND APPLICATION THEREOF” (SHENZHEN CHIPSCREEN BIOSCIENCES CO., LTD., priority 2020, published 2024)
Like-named read-outs stand apart in the source and are kept apart here.

How the values were obtained:
[1] = system: EPO-induced JAK2 signal pathway; assay: EPO-induced proliferation of UT-7 cells (JAK2 signal); format: cell-based, human; conditions: Homo sapiens, UT7; UT-7 cell proliferation, EPO 10 ng/mL, 72 hours; read-out: Inhibition activity IC50 on EPO-induced JAK2 signal pathway
Experimental: The cytokine EPO, i.e. erythropoietin, can promote the proliferation and division of erythroid progenitor cells, and the signal pathway induced by EPO coupling with its receptor is mediated by JAK2-STAT5.
Human promegakaryocytic leukemia cell line UT-7 was commercially available from Cell Resource Center, Institute of Basic Medicine, Chinese Academy of Medical Sciences. The culture medium was RPIM1640 containing 10% FBS, and EPO was added for a final concentration of 10 ng/mL.
The inhibition rate of the tested compound on EPO-induced cell proliferation was calculated using Microsoft Excel.
UT-7 cell line was inoculated in 96-well plate with flat bottom at 15000 cells per well, each well was added with 10 ng/mL of human recombinant EPO (Human EPO PEPROTECH 100-64-10UG), along with tested compound respectively for a final concentration of 0, 100, 1000 or 10000 nM. After culture at 37° C. and 5% CO2 for 72 hours, alamarBlue™ Cell Viability Reagent was added to each well following the instructions. After incubation at 37° C. for color reaction, the fluorescence value at Ex530/Em590 was detected using Tecan Spark™ 10M multimode microplate reader.
(§1) The well in which neither compound nor cytokine was added was designated as 00 control well, and the fluorescence value in the wells in which the final concentration of compound was 0 was designated as 100 control. The inhibition activity MC50 ofthe tested compound on JAK2 could be calculated from the inhibition rate ofthe tested compound on EPO-induced cell proliferation at different doses.

[2] = system: IL-2-induced JAK1/JAK3 signal pathway; assay: IL-2-induced proliferation of KHYG-1 cells (JAK1/JAK3 signal); format: cell-based, human; conditions: Homo sapiens, read-out: Inhibition activity IC50 on IL-2-induced JAK1/JAK3 signal pathway
Excerpt: The main physiological function of cytokine IL-2 is to stimulate and maintain the proliferation and differentiation of T cells. Generally, IL-2 dependent T cells cannot survive in in-vitro culture for a long time, but the addition of IL-2 can make them continue to proliferate. The signal pathway induced by IL-2 coupling with its receptor is mediated by JAK1/JAK3-STAT5, so the inhibitor of JAK1 and/or JAK3 can inhibit the proliferation of IL-2 dependent cells.
Human natural killer cell lymphoma cell line KHYG-1 was commercially available from Health Science Research Resources Bank (HSRRB), and relevant culture conditions referred to those from HSRRB.
The inhibition rate of the tested compound on IL-2-induced cell proliferation was calculated using Microsoft Excel.
After culture at 37° C. and 5% CO2 for 72 hours, alamarBlue™ Cell Viability Reagent was added to each well following the instructions.
as §1, with “0%” for “00”, “100%” for “100”, “[…] of the” for “MC50 ofthe”, “JAK1/JAK3” for “JAK2”, “of the” for “ofthe”, “IL-2-induced” for “EPO-induced”

[3] = KHYG-1 cell proliferation, IL-2 10 ng/mL, 72 hours

SMILES | IC50 [1] [µM] | IC50 ([2]; KHYG-1, 72 h) [µM] | IC50 [2, 3] [µM]
CONC(=O)c1cnc(NC(=O)C2CC2)cc1Nc1ccccc1OC1COC1 [Example 39, 6-(cyclopropylcarboxamido)-N-methoxy-4-((2-(oxetan-3-yloxy)phenyl)amino)nicotinamide] | > 10 | > 10 | 
CCONC(=O)c1cnc(Nc2nc(C)cs2)cc1Nc1ccc(C)cc1N(C)S(C)(=O)=O [Example 165, N-ethoxy-4-((4-methyl-2-(N-methylmethanesulfonamido)phenyl)amino)-6-((4-methylthiazol-2-yl)amino)nicotinamide] | > 10 |  | > 10
CONC(=O)c1cnc(Nc2ccc(F)cn2)cc1Nc1cccc(C(F)(F)F)c1N(C)S(C)(=O)=O [Example 84, 6-((5-fluoropyridin-2-yl)amino)-N-methoxy-4-((2-(N-methylmethanesulfonamido)-3-(trifluoromethyl)phenyl)amino)nicotinamide] | > 10 |  | > 10
CONC(=O)c1cnc(Nc2cccc(F)n2)cc1Nc1ccc(C(F)(F)F)cc1N(C)S(C)(=O)=O [Example 11, 6-((6-fluoropyridin-2-yl)amino)-N-methoxy-4-((2-(N-methylmethanesulfonamido)-4-(trifluoromethyl)phenyl)amino)nicotinamide] | > 10 |  | > 10
CONC(=O)c1cnc(Nc2cccnc2OC)cc1Nc1ccccc1N(C)S(C)(=O)=O [Example 5] | > 10 |  | > 10
CONC(=O)c1cnc(Nc2cccc(F)n2)cc1Nc1cccc(Cl)c1N(C)S(C)(=O)=O [Example 76, 4-((3-chloro-2-(N-methylmethanesulfonamido)phenyl)amino)-6-((6-fluoropyridin-2-yl)amino)-N-methoxy nicotinamide] | > 10 |  | > 10
CONC(=O)c1cnc(NC(=O)C2CC2)cc1Nc1cccc(C)c1N(C)S(C)(=O)=O [Example 33, 6-(cyclopropylcarboxamido)-N-methoxy-4-((3-methyl-2-(N-methylmethanesulfonamido)phenyl)amino)nicotinamide] | > 10 |  | > 10
CONC(=O)c1cnc(NC(=O)C2CC2)cc1Nc1cccn(-c2nccs2)c1=O [Example 1, 6-(cyclopropylcarboxamido)-N-methoxy-4-((2-oxo-1-(thiazol-2-yl)-1,2-dihydropyridin-3-yl)amino)nicotinamide] | > 10 |  | > 10
CONC(=O)c1cnc(Nc2ccc(C#N)cc2)cc1Nc1ccccc1N(C)S(C)(=O)=O [Example 103, 6-((4-cyanophenyl)amino)-N-methoxy-4-((2-(N-methylmethanesulfonamido)phenyl)amino)nicotinamide] | > 10 |  | > 10
CCONC(=O)c1cnc(Nc2ccnn2C)cc1Nc1ccc(C2CC2)cc1N(C)S(C)(=O)=O [Example 161, 4-((4-cyclopropyl-2-(N-methylmethanesulfonamido)phenyl)amino)-N-ethoxy-6-((1-methyl-1H-pyrazol-5-yl)amino)nicotinamide] | > 10 |  | > 10
CCNC(=O)c1cnc(NC(=O)C2CC2)cc1Nc1cccc(-c2cnn(C)c2)c1OC [Example 71, 6-(cyclopropylcarboxamido)-N-ethyl-4-((2-methoxy-3-(1-methyl-1H-pyrazol-4-yl)phenyl)amino)nicotinamide] | > 10 |  | > 10
CCONC(=O)c1cnc(Nc2nccs2)cc1Nc1ccc(C2CC2)cc1N(C)S(C)(=O)=O [Example 158, 4-((4-cyclopropyl-2-(N-methylmethanesulfonamido)phenyl)amino)-N-ethoxy-6-(thiazol-2-ylamino)nicotinamide] | > 10 |  | > 10
CONC(=O)c1cnc(NC(=O)C2CC2)cc1Nc1cccc(-c2nc3ccccc3n2C)c1OC [Example 3, 6-(cyclopropylcarboxamido)-N-methoxy-4-((2-methoxy-3-(1-methyl-1H-benzo[d]imidazol-2-yl)phenyl)amino)nicotinamide] | > 10 |  | > 10
CCONC(=O)c1cnc(Nc2ncc(C)s2)cc1Nc1ccc(OC)cc1N(C)S(C)(=O)=O [Example 172, N-ethoxy-4-((4-methoxy-2-(N-methylmethanesulfonamido)phenyl)amino)-6-(5-methylthiazol-2-ylamino)nicotinamide] | > 10 |  | > 10
CONC(=O)c1cnc(NC(=O)C2CC2)cc1Nc1cccc(C(F)(F)F)c1N(C)S(C)(=O)=O [Example 82, 6-(cyclopropylcarboxamido)-N-methoxy-4-((2-(N-methylmethanesulfonamido)-3-(trifluoromethyl)phenyl)amino)nicotinamide] | > 10 |  | > 10
CONC(=O)c1cnc(NC(=O)C2CC2)cc1Nc1ccccc1P(C)(C)=O [Example 73, 6-(cyclopropylcarboxamido)-4-((2-(dimethylphosphoryl)phenyl)amino)-N-methoxy nicotinamide] | > 10 |  | > 10
CONC(=O)c1cnc(NC(=O)C2CC2)cc1Nc1cccc(Cl)c1N(C)S(C)(=O)=O [Example 75, 4-((3-chloro-2-(N-methylmethanesulfonamido)phenyl)amino)-6-(cyclopropylcarboxamido)-N-methoxy nicotinamide] | > 10 |  | > 10
CONC(=O)c1cnc(NC(=O)[C@H]2CC2(C)C)cc1Nc1ccc(C2CC2)cc1N(C)S(C)(=O)=O [Example 94, (S)-4-((4-cyclopropyl-2-(N-methylmethanesulfonamido)phenyl)amino)-6-(2,2-dimethylcyclopropyl-1-carboxamido)-N-methoxy nicotinamide] | > 10 |  | > 10
N#CC[C@H](C1CCCC1)n1cc(-c2ncnc3[nH]ccc23)cn1 [ruxolitinib, reference compound] | < 0.1 |  | 
CONC(=O)c1cnc(NC(=O)C2CC2)cc1Nc1ccc2cnn(C)c2c1 [Example 28, 6-(cyclopropylcarboxamido)-N-methoxy-4-((1-methyl-1H-indazol-6-yl)amino)nicotinamide] | > 10 |  | > 10
CCONC(=O)c1cnc(Nc2nc(C)cc(C)n2)cc1Nc1ccc(C)cc1N(C)S(=O)(=O)C1CC1 [Example 66, 6-((4,6-dimethylpyrimidin-2-yl)amino)-N-ethoxy-4-((4-methyl-2-(N-methylcyclopropylsulfonamido)phenyl)amino)nicotinamide] | > 10 |  | > 10
CONC(=O)c1cnc(Nc2cccc(F)n2)cc1Nc1cccc(C(F)(F)F)c1N(C)S(C)(=O)=O [Example 83, 6-((6-fluoropyridin-2-yl)amino)-N-methoxy-4-((2-(N-methylmethanesulfonamido)-3-(trifluoromethyl)phenyl)amino)nicotinamide] | > 10 |  | > 10
CONC(=O)c1cnc(Nc2ccc(C(F)(F)F)cn2)cc1Nc1ccccc1N(C)S(C)(=O)=O [Example 92, N-methoxy-4-((2-(N-methylmethanesulfonamido)phenyl)amino)-6-((5-(trifluoromethyl)pyridin-2-yl)amino)nicotinamide] | > 10 |  | > 10
CONC(=O)c1cnc(Nc2cccc(F)n2)cc1Nc1cccc(C2CC2)c1N(C)S(C)(=O)=O [Example 86] | > 10 |  | > 10
CCONC(=O)c1cnc(Nc2ncccn2)cc1Nc1cc(F)c(C2CC2)cc1N(C)S(C)(=O)=O [Example 169, 4-((4-cyclopropyl-5-fluoro-2-(N-methylmethanesulfonamido)phenyl)amino)-N-ethoxy-6-(pyrimidin-2-ylamino)nicotinamide] | > 10 |  | > 10
CONC(=O)c1cnc(Nc2ccc(S(C)(=O)=O)cc2)cc1Nc1cccc(-c2cnn(C)c2)c1OC [Example 72, N-methoxy-4-((2-methoxy-3-(1-methyl-1H-pyrazol-4-yl)phenyl)amino)-6-((4-(methanesulfonyl)phenyl)amino)nicotinamide] | > 10 |  | > 10
